Test results: patent publication US8461328B2, “Tricyclic heterocyclic compounds, compositions and methods of use thereof” (Genentech, Inc., priority 2010, dated 2013)

Key:
Assay type in all cases: biochemical
[1] = biological target: T1, JAK3 (Homo sapiens, UniProt P52333); experiment: JAK3 inhibition (Table 4); settings: read-out: JAK3 Ki
T1 construct: made in house; host or cells: SF9 insect cells (baculovirus)

[2] = biological target: T2, JAK1 (Homo sapiens, UniProt P23458); experiment: JAK1 inhibition (Table 4); settings: read-out: JAK1 Ki
T2 construct: made in house; host or cells: SF9 insect cells (baculovirus)

[3] = biological target: T3, TYK2 (Homo sapiens, UniProt P29597); experiment: TYK2 inhibition (Table 4)
T3 construct: made in house; host or cells: SF9 insect cells (baculovirus)
T3 sequence (P29597 873-1187): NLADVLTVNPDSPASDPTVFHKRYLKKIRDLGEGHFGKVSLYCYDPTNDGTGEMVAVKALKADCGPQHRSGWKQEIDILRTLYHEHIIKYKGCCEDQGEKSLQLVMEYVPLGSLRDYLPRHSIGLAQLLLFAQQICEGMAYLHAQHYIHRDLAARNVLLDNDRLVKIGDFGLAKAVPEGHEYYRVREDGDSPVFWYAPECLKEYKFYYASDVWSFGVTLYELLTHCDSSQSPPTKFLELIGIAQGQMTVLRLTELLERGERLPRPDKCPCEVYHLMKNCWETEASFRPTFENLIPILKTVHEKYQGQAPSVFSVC

[4] = biological target: T4, JAK2 (Homo sapiens, UniProt O60674); experiment: JAK2 inhibition (Table 4); settings: read-out: JAK2 Ki
T4 construct: made in house; host or cells: SF9 insect cells (baculovirus)
T4 sequence (O60674 812-1132): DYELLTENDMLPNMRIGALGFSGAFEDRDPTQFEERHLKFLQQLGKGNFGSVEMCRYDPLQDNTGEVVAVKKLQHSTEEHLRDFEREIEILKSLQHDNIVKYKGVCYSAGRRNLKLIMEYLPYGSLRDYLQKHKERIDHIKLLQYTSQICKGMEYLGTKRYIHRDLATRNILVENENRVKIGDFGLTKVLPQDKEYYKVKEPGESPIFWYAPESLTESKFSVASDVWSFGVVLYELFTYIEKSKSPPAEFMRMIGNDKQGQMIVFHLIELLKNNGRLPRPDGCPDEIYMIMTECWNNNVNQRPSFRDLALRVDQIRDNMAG

T1 sequence (P52333 783-1124): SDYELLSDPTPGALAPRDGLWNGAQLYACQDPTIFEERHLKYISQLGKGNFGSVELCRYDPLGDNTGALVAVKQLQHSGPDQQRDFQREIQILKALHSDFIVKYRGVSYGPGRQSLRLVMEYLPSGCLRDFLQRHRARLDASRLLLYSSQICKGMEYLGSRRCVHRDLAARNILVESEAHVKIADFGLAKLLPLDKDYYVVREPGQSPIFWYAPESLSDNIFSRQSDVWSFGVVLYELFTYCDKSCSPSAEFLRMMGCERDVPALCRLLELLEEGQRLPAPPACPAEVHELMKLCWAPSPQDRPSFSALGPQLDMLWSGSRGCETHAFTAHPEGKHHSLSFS
T2 sequence (P23458 852-1154): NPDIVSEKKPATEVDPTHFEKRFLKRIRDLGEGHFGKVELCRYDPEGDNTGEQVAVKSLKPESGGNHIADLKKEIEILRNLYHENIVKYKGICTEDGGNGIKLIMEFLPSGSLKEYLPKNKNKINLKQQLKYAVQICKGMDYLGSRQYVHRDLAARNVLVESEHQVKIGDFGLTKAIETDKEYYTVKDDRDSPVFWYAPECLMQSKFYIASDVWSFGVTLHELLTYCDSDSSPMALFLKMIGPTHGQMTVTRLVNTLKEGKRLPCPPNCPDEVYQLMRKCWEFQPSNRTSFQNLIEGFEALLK

Ki [1] [nM]	Ki [2] [nM]	Ki [3] [nM]	Ki [4] [nM]	Compound
305	71.7	286	235	OCCc1nc2cnc3[nH]ccc3c2n1[C@@H]1CCCOC1 [Example 864, (R)-2-[1-(Tetrahydro-pyran-3-yl)-1,6-dihydro-1,3,5,6-tetraaza-as-indacen-2-yl]-ethanol]
717	87.8	1270	566	CC(=O)NCCc1nc2cnc3[nH]ccc3c2n1[C@@H]1CCCOC1 [Example 865, (R)—N-{2-[1-(Tetrahydro-pyran-3-yl)-1,6-dihydro-1,3,5,6-tetraaza-as-indacen-2-yl]-ethyl}-acetamide]
119	3.58	26.6	96.5	C[C@@H](O)c1nc2cnc3[nH]ccc3c2n1C1CCCC1 [Example 867, (R)-1-(1-Cyclopentyl-1,6-dihydro-1,3,5,6-tetraaza-as-indacen-2-yl)-ethanol]
119	7.07	149	148	CCN1CC[C@@H](n2c([C@@H](C)O)nc3cnc4[nH]ccc4c32)[C@@H](F)C1 [Example 868, (R)-1-[1-((3S,4R)-1-Ethyl-3-fluoro-piperidin-4-yl)-1,6-dihydro-1,3,5,6-tetraaza-as-indacen-2-yl]-ethanol]
177	59.7	1170	290	C#CCCN1CCC(n2c([C@@H](C)O)nc3cnc4[nH]ccc4c32)CC1 [Example 871, (R)-1-[1-(1-But-3-ynyl-piperidin-4-yl)-1,6-dihydro-1,3,5,6-tetraaza-as-indacen-2-yl]-ethanol]
72.7	20.7	422	124	C[C@@H](O)c1nc2cnc3[nH]ccc3c2n1C1CCN(CCF)CC1 [Example 873, (R)-1-{1-[1-(2-Fluoro-ethyl)-piperidin-4-yl]-1,6-dihydro-1,3,5,6-tetraaza-as-indacen-2-yl}-ethanol]
10.6	1.69	10.9	37.8	C[C@@H](O)c1nc2cnc3[nH]ccc3c2n1C1CCNCC1F (stereo partly drawn) [Example 877, (R)-1-[1-(3-Fluoro-piperidin-4-yl)-1,6-dihydro-1,3,5,6-tetraaza-as-indacen-2-yl]-ethanol]
13.6	1.8	11.8	43.7	O[C@@H](c1nc2cnc3[nH]ccc3c2n1C1CCCCC1)C(F)(F)F [Example 878, (S)-1-(1-Cyclohexyl-1,6-dihydro-1,3,5,6-tetraaza-as-indacen-2-yl)-2,2,2-trifluoro-ethanol]
90.6	26.4	59.7	280	C[C@@H](O)c1nc2cnc3[nH]ccc3c2n1C1CCOCC1 [Example 881, (R)-1-[1-(Tetrahydro-pyran-4-yl)-1,6-dihydro-1,3,5,6-tetraaza-as-indacen-2-yl]-ethanol]
72.6	3.56	10.6	51.6	C[C@@H](O)c1nc2cnc3[nH]ccc3c2n1N1CCCCC1 [Example 882, (R)-1-(1-Piperidin-1-yl-1,6-dihydro-1,3,5,6-tetraaza-as-indacen-2-yl)-ethanol]
89.3	4.61	244	15.8	CC(C)CC(=O)NC1CCC(n2nnc3cnc4[nH]ccc4c32)CC1 (stereo not shown) [Example 883, 3-Methyl-N-[4-(6H-1,2,3,5,6-pentaaza-as-indacen-1-yl)-cyclohexyl]-butyramide]
86.3	5.17	44	6.39	O=C(NC1CCC(n2cnc3cnc4[nH]ccc4c32)CC1)c1cccnc1 (stereo not shown) [Example 884, N-[4-(6H-1,3,5,6-Tetraaza-as-indacen-1-yl)-cyclohexyl]-nicotinamide]
47.8	6.16	33	23.8	Cc1nc2cnc3[nH]ccc3c2n1[C@@H]1CCCC(=O)C1 [Example 885, (R)-3-(2-Methyl-6H-1,3,5,6-tetraaza-as-indacen-1-yl)-cyclohexanone]
